From patent US20170176446A1, “Methods for Determining the Oncogenic Condition of Cell, Uses Thereof, and Methods for Treating Cancer” (INSERM (INSTITUT NATIONAL DE LA SANTE ET DE LA RECHERCHE …, priority 2009, published 2017)

How the values were obtained:
[1] = target: T1, ChEH (Rattus norvegicus, UniProt Q9JJ46); test: Determination of the Ki for ChEH on rat liver microsome proteins (Dixon method); type: biochemical; conditions: 150 μg rat liver microsome proteins, [14C]CEα
T1 construct: 150 μg of rat liver microsome proteins are incubated; from tissue; host or cells: rat liver microsomes
T1 sequence (Q9JJ46 1-230): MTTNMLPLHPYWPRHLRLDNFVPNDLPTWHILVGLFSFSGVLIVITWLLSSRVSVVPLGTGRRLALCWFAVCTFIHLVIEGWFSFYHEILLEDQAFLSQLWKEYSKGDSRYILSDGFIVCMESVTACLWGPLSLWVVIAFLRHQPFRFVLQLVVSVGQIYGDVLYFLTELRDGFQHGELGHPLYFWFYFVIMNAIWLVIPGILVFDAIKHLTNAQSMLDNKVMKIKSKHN

[2] = test system: MCF7 cells; test: OCDO production by MCF7 cells incubated with [14C]CE, thin-layer chromatography; type: cell-based, human; conditions: for % CE / % CT / % OCDO: [14C]CEα, concentration given with each compound, share of labeled oxysterols
Text: For assays 1 to 5 and in some of the examples given later in this patent application, MCF7 tumor cells, which originate from the American Tissue Culture Collection (ATCC), were used. […] It is desired to study the activity of ChEH in […] cells by silica thin-layer chromatography. The compounds that it is desired to visualize are the CE and CT compounds defined above. In order to visualize the spots corresponding to CE and CT on a chromatography plate, ^14C-labeled CE and CT compounds were synthesized.
In order to be used in assays 1 to 5 which follow, the cells are seeded into 6-well plates at a density of 80 000 cells in a volume of 2 ml. […] After the incubation time desired for the assay, the medium is collected, the cells are washed with cold PBS (phosphate buffer) (2 ml per well) which is pooled with the medium. The cells are then scraped into cold PBS (1 ml for 3 wells); the wells are again rinsed with cold PBS (1 ml for 3 wells). The cell suspension obtained is centrifuged at 1000 rpm for 5 min at 4° C. […] Throughout the rest of this description, the vehicle solvent used is the same as that defined above.
The aqueous and organic radioactivities are counted. The organic phases are brought to dryness under argon. The residue is resuspended in 60 μl of ethanol and then deposited, in a proportion of 20 μl per lane, on to the glass-backed silica plates (Whatman LK-6-DF, 20×20), which are used in the various assays (these plates having been preheated at 100° C. for 1 hour). The migration solvent used is ethyl acetate. The chromatography plates are placed in contact with a “phosphor-screen” plate in a cassette overnight. […] In order to evaluate the more or less dense nature of the spots obtained on the plates, the radioactivity is quantified by densitometry with the “Imagequant”™ computer program.
(§1) Generally, in order to establish the percentages of OCDO inhibition from the thin-layer chromatography (TLC) plates obtained as in assay 2, the radioactive metabolites are identified and quantified on the basis of said plates using a europium-sensitive plate of GP Phosphor screen type (GE Healthcare) and a Storm 840 phosphorimagor (GE Healthcare). The proportion of radiolabeled oxysterols is determined on the autoradiogram obtained by densitometry using the Image Quant 5.2 software. The percentage is calculated on the basis of the ratio between the amount of oxysterols quantified divided by the sum of the amounts of oxysterols (CEE+CE+CT+OCDO). Since the CEE (CE ester) originates exclusively from the CE, the percentage CE is calculated on the basis of the ratio (CE+CEE)/(CE+CEE+CT+OCDO).
Assay 2 given above was therefore completed by measuring the amounts of the products present when the MCF7 tumor cells are incubated as indicated in detail in assay 2.
In order to establish that the link that exists between, on the one hand, the ability of various compounds to inhibit OCDO in an MCF7 tumor cell and, on the other hand, their quality as a ChEH inhibitor, is well-founded, the inhibition coefficients Ki for ChEH relating to a certain number of products was calculated and the production of OCDO by MCF7 cells after incubation of the cells with the same products was measured according to the protocol defined in assay 2 of the present patent application.

[3] = test system: MCF7 cells; test: OCDO production by MCF7 cells incubated with [14C]CT for 24 hours (example 11); type: cell-based, human; conditions: 10 μM, control = 100
Experimental: as §1
The following experiments were carried out: MCF7 tumor cells were placed in the presence of 0.5 μM of [^14C]CT and were then incubated for 24 hours in the presence of one of the following products: • 1. vehicle solvent (0.1% ethanol in a PBS buffer) serving as a control (lane 1) • 2. 10 μM of progesterone • 3. 10 μM of U18666A • 4. 100 nM of TCDD • 5. 10 μM of benzo(A)pyrene • 6. 10 μM of resveratrol • 7. 10 μM of PDM2 (Ant. 1).
Thin-layer chromatographies were carried out and FIG. 24 represents the plate obtained. The OCDO production in the treated cells was quantified from the spots of the various lanes, by applying the protocol given in detail in example 7. The results of this quantification are represented by the histogram of FIG. 24.
The amounts of OCDO produced by MCF7 cells, when they are incubated according to the same protocol as defined above with other Ahr receptor antagonists, was also measured, the control test being brought to 100 and the OCDO production being expressed as % of the control (same control as above).

[4] = concentration in μM in parentheses after each molecule, control = 100

Row | Compound | Ki [1] [nM] | OCDO production by MCF-7 (% control) [2, 4] [% control] | further results
1 | CC/C(=C(\c1ccc(O)cc1)c1ccc(OCCN(C)C)cc1)c1ccccc1 [4OH-Tamoxifen, 4-[(Z)-1-[4-(2-dimethylaminoethyloxy)-phenyl]-2-phenylbut-1-enyl]phenol] | 145 ± 4 | <1 | –
2 | Clc1ccccc1CNC[C@H]1CC[C@H](CNCc2ccccc2Cl)CC1 [AY-9944, trans-1,4-bis(2-chlorobenzaminomethyl)-cyclohexane] | 649 ± 6 | <1 | –
3 | CCCCc1oc2ccccc2c1C(=O)c1cc(I)c(OCCN(CC)CC)c(I)c1 [Amiodarone, (2-butyl-1-benzofuran-3-yl)-[4-(2-diethylaminoethyloxy)-3,5-diiodophenyl]methanone] | – | 8 | –
4 | Clc1ccc(/C=C/c2cc(Cl)cc(Cl)c2)cc1 [Ant 1, (E)-1-(4′-chlorophenyl)-2-(3,5-dichlorophenyl)-ethene] | – | – | OCDO production by MCF-7 (% control) [3]: <1 % control
5 | COc1ccc(/C=C/c2cc(F)cc(F)c2)cc1 [Ant 2, (E)-1-(4′-methoxyphenyl)-2-(3,5-fluorophenyl)-ethene] | – | – | OCDO production by MCF-7 (% control) [3]: <1 % control
6 | Fc1ccc(/C=C/c2cc(F)cc(F)c2)cc1 [Ant 3, (E)-1-(4′-fluorophenyl)-2-(3,5-fluorophenyl)-ethene] | – | – | OCDO production by MCF-7 (% control) [3]: <1 % control
7 | FC(F)(F)c1ccc(/C=C/c2cc(C(F)(F)F)cc(C(F)(F)F)c2)cc1 [Ant 4, (E)-1-(4′-trifluoromethylphenyl)-2-(3,5-trifluoromethylphenyl)ethene] | – | – | OCDO production by MCF-7 (% control) [3]: <1 % control
8 | COc1cc(/C=C/c2ccc(F)cc2)cc(OC)c1 [Ant 5, (E)-1-(4′-fluorophenyl)-2-(3,5-dimethoxy-phenyl)ethene] | – | – | OCDO production by MCF-7 (% control) [3]: <1 % control
9 | CC(C)CCC[C@@H](C)[C@H]1CC[C@H]2[C@@H]3C[C@@H]4O[C@@]45C[C@@H](O)CC[C@]5(C)[C@H]3CC[C@]12C [CEα, 5,6-α-epoxycholestan-3β-ol] | – | – | % CE ([2]; MCF7 cells, three days): 31.5%; % CT ([2]; MCF7 cells, three days): 41.5%; % OCDO ([2]; MCF7 cells, three days): 27%
10 | CCN(CC)CCOc1ccc(/C(=C(\Cl)c2ccccc2)c2ccccc2)cc1 [Clomiphene, 2-[4-[(Z)-2-chloro-1,2-di(phenyl)ethenyl]-phenoxy]-N,N-diethylethanamine] | – | <1 | –
11 | O=C(CCCN1CCC(O)(c2ccc(Cl)cc2)CC1)c1ccc(F)cc1 [Haloperidol, 4-(4-(4-chlorophenyl)-4-hydroxypiperidin-1-yl)-1-(4-fluorophenyl)butan-1-one] | – | 42 | –
12 | COc1ccc(/C(=C(\c2ccccc2)[N+](=O)[O-])c2ccc(OCCN3CCCC3)cc2)cc1 [Nitromiphene, 1-[2-[4-[(Z)-1-(4-methoxyphenyl)-2-nitro-2-phenylethenyl]phenoxy]ethyl]pyrrolidine] | 17.7 ± 6 | <1 | –
13 | CC(C)(c1ccccc1)c1ccc(OCCN2CCCC2)cc1 [PCPE, 1-(2-(4-(2-phenylpropan-2-yl)phenoxy)ethyl)-pyrrolidine] | 34.7 ± 8 | <1 | –
14 | CCN(CC)CCOc1ccc(C2C[C@]3(C)C(O)CC[C@H]3[C@@H]3CCc4cc(O)ccc4[C@@H]23)cc1 (some centres unmarked) [RU 39,411, 11-[4-N,N-[diethylaminoethoxy]phenyl]estra-1,3,5(10)triene-3,17-diol] | 155 ± 8 | <1 | –
15 | O=C(c1ccc(OCCN2CCCCC2)cc1)c1c(-c2ccc(O)cc2)sc2cc(O)ccc12 [Raloxifene, [6-hydroxy-2-(4-hydroxyphenyl)-1-benzothiophen-3-yl]-[4-(2-piperidin-1-ylethoxy)phenyl]methanone] | 35.6 ± 4 | <1 | % CE ([2]; MCF7 cells, three days): 96.5%; % CT ([2]; MCF7 cells, three days): 3%; % OCDO ([2]; MCF7 cells, three days): 0.5%
16 | Oc1ccc(C=Cc2cc(O)cc(O)c2)cc1 [Resveratrol] | – | – | OCDO production by MCF-7 (% control) [3]: <1 % control
17 | C[C@@H]1CN(CCCn2c3ccccc3c3ccccc32)C[C@H](C)N1 [Rimcazole, 9-[3-[(3S,5R)-3,5-dimethylpiperazin-1-yl]propyl]carbazole] | 2325 ± 8 | 12 | –
18 | CCCC(C(=O)OCCN(CC)CC)(c1ccccc1)c1ccccc1 [SKF-525A, 2-diethylaminoethyl-2,2-diphenylpentanoate] | 1904 ± 11 | <1 | –
19 | CCN(CC)CCOc1ccc(Cc2ccccc2)cc1 [Tesmilifene, 2-(4-benzylphenoxy)-N,N-diethylethanamine] | 62.4 ± 3 | <1 | % CE ([2]; MCF7 cells, three days): 80.7%; % CT ([2]; MCF7 cells, three days): 10.5%; % OCDO ([2]; MCF7 cells, three days): 8.8%
20 | CN1CCN(CCCN2c3ccccc3Sc3ccc(C(F)(F)F)cc32)CC1 [Trifluoroperazine, 10-[3-(4-methylpiperazin-1-yl)propyl]-2-(trifluoromethyl)phenothiazine] | 135 ± 7 | <1 | –
21 | CCN(CC)CCOc1ccc(C(O)(Cc2ccc(Cl)cc2)c2ccc(C)cc2)cc1 (centres unmarked) [Triparanol] | 39.5 ± 3 | <1 | –
22 | CCN(CC)CCO[C@H]1CC[C@@]2(C)C(=CC[C@@H]3[C@@H]2CC[C@]2(C)C(=O)CC[C@@H]32)C1 [U-18666A, 3-beta-(2-(diethylamino)ethoxy)androst-5-en-17-one] | 90.3 ± 5 | <1 | –
23 | CC(=O)N1CCN(c2ccc(OCC3COC(Cn4ccnc4)(c4ccc(Cl)cc4Cl)O3)cc2)CC1 (centres unmarked) [ketoconazole] | – | – | production of the epoxysterol CE and of its derivatives CT and OCDO ([2]; 10 μM ketoconazole, three days, MCF7 cells): inhibition of the production of the epoxysterol CE and of its derivatives
24 | CC[C@H](C)C(=O)O[C@H]1C[C@@H](C)C=C2C=C[C@H](C)[C@H](CC[C@@H]3C[C@@H](O)CC(=O)O3)[C@H]21 [lovastatin] | – | – | OCDO production by the MCF7 cells ([2]; 10 μM, control brought to the value 100): less than 1
25 | (E)-N,3,6,6-tetramethyl-N-(naphthalen-1-ylmethyl)hept-2-en-4-yn-1-amine [Terbinafine] | 9105 ± 33 | <1 | –
26 | Ibogaine | – | – | OCDO production by MCF-7 (% control) [2]: 25 % control
